Laboratory results reported in ChEMBL document CHEMBL2429724, “Computational POM evaluation of experimental in vitro Trypanosoma cruzi and Mycobacterium tuberculosis inhibition of heterocyclic-2-carboxylic acid (3-cyano-1,4-di-noxidequinoxalin-2-yl)amide derivatives” (Med Chem Res, 2013).
≈ marks a conversion by molar mass, not a printed value.

How the values were obtained:
[1] = test system: Trypanosoma cruzi; test: Antimicrobial activity against benznidazole-resistant epimastigotes of Trypanosoma cruzi Tulahuen 2 assessed as growth inhibition at 25 uM measured on day 5 by spectrophotometry; type: functional; conditions: Tulahuen 2, 120 h, read-out: GI
[2] = test system: Mycobacterium tuberculosis; test: Antimicrobial activity against Mycobacterium tuberculosis H37Rv ATCC 27294 by microplate Alamar Blue assay; type: functional
[3] = test system: Trypanosoma cruzi; test: Antimicrobial activity against benznidazole-resistant epimastigotes of Trypanosoma cruzi Tulahuen 2 assessed as growth inhibition measured on day 5 by spectrophotometry; type: functional, organism-based; conditions: Tulahuen 2, 120 h

SMILES	inhibition of growth at 25 µM [1]	MIC [2]	MIC [3]
Cc1ccc2c(c1)[n+]([O-])c(C#N)c(NC(=O)c1ccc([N+](=O)[O-])s1)[n+]2[O-]	11.4%	–	–
N#Cc1c(NC(=O)c2ccc([N+](=O)[O-])o2)[n+]([O-])c2ccccc2[n+]1[O-]	0.7%	–	–
N#Cc1c(NC(=O)c2ccc([N+](=O)[O-])s2)[n+]([O-])c2cc(Cl)c(Cl)cc2[n+]1[O-]	29.8%	–	–
Cc1cc2c(cc1C)[n+]([O-])c(NC(=O)c1cccs1)c(C#N)[n+]2[O-]	13.5%	1.19 µg/mL (≈ 3.5 µM)	–
N#Cc1c(NC(=O)c2ccco2)[n+]([O-])c2cc(C(F)(F)F)ccc2[n+]1[O-]	–	17.9 µg/mL (≈ 49.1 µM)	–
Cc1cc2c(cc1C)[n+]([O-])c(NC(=O)c1ccc([N+](=O)[O-])s1)c(C#N)[n+]2[O-]	36.4%	–	–
N#Cc1c(NC(=O)c2ccc([N+](=O)[O-])s2)[n+]([O-])c2cc(F)c(F)cc2[n+]1[O-]	9.2%	–	–
N#Cc1c(NC(=O)c2ccc([N+](=O)[O-])o2)[n+]([O-])c2ccc(F)cc2[n+]1[O-]	–	21.7 µg/mL (≈ 60.4 µM)	–
N#Cc1c(NC(=O)c2cccs2)[n+]([O-])c2ccc(F)cc2[n+]1[O-]	27.5%	1.47 µg/mL (≈ 4.45 µM)	–
N#Cc1c(NC(=O)c2ccco2)[n+]([O-])c2ccc(C(F)(F)F)cc2[n+]1[O-]	–	24.2 µg/mL (≈ 66.5 µM)	–
CC1CS(=O)(=O)CCN1/N=C/c1ccc([N+](=O)[O-])o1 (configuration not stated) [NIFURTIMOX]	100%	–	7.7 µM (≈ 2.21 µg/mL)
N#Cc1c(NC(=O)c2ccc([N+](=O)[O-])o2)[n+]([O-])c2cc(F)c(F)cc2[n+]1[O-]	–	22.2 µg/mL (≈ 58.7 µM)	–
N#Cc1c(NC(=O)c2cccs2)[n+]([O-])c2cc(F)c(F)cc2[n+]1[O-]	92%	–	–
N#Cc1c(NC(=O)c2ccc([N+](=O)[O-])s2)[n+]([O-])c2ccc(Cl)cc2[n+]1[O-]	15%	–	–
N#Cc1c(NC(=O)c2ccco2)[n+]([O-])c2ccccc2[n+]1[O-]	3.1%	0.977 µg/mL (≈ 3.3 µM)	–
N#Cc1c(NC(=O)c2cccs2)[n+]([O-])c2cc(Cl)c(Cl)cc2[n+]1[O-]	–	13.6 µg/mL (≈ 35.7 µM)	–
Cc1ccc2c(c1)[n+]([O-])c(C#N)c(NC(=O)c1ccc([N+](=O)[O-])o1)[n+]2[O-]	0%	–	–
CO[C@H]1/C=C/O[C@@]2(C)Oc3c(C)c(O)c4c(O)c(c(/C=N/N5CCN(C)CC5)c(O)c4c3C2=O)NC(=O)/C(C)=C\C=C\[C@H](C)[C@H](O)[C@@H](C)[C@@H](O)[C@@H](C)[C@H](OC(C)=O)[C@@H]1C [RIFAMPIN]	–	0.125 µg/mL (≈ 0.152 µM)	–
N#Cc1c(NC(=O)c2ccco2)[n+]([O-])c2ccc(Cl)cc2[n+]1[O-]	–	15.4 µg/mL (≈ 46.4 µM)	–
N#Cc1c(NC(=O)c2ccc([N+](=O)[O-])o2)[n+]([O-])c2ccc(C(F)(F)F)cc2[n+]1[O-]	–	14.4 µg/mL (≈ 35.2 µM)	–
N#Cc1c(NC(=O)c2ccco2)[n+]([O-])c2cc(Cl)c(Cl)cc2[n+]1[O-]	31.6%	–	–

SMILES	inhibition of growth at 25 µM [1]	MIC [2]	MIC [3]
N#Cc1c(NC(=O)c2ccc([N+](=O)[O-])s2)[n+]([O-])c2ccc(C(F)(F)F)cc2[n+]1[O-]	–	6 µg/mL (≈ 14.1 µM)	–
COc1ccc2c(c1)[n+]([O-])c(C#N)c(NC(=O)c1cccs1)[n+]2[O-]	15.1%	48.9 µg/mL (≈ 143 µM)	–
Cc1ccc2c(c1)[n+]([O-])c(C#N)c(NC(=O)c1cccs1)[n+]2[O-]	16.4%	2.08 µg/mL (≈ 6.37 µM)	–
N#Cc1c(NC(=O)c2ccc([N+](=O)[O-])s2)[n+]([O-])c2ccccc2[n+]1[O-]	0%	2.88 µg/mL (≈ 8.06 µM)	–
Cc1cc2c(cc1C)[n+]([O-])c(NC(=O)c1ccco1)c(C#N)[n+]2[O-]	13.1%	–	–
N#Cc1c(NC(=O)c2cccs2)[n+]([O-])c2cc(F)ccc2[n+]1[O-]	–	4.58 µg/mL (≈ 13.9 µM)	–
N#Cc1c(NC(=O)c2cccs2)[n+]([O-])c2ccc(C(F)(F)F)cc2[n+]1[O-]	–	9.18 µg/mL (≈ 24.1 µM)	–
COc1ccc2c(c1)[n+]([O-])c(C#N)c(NC(=O)c1ccco1)[n+]2[O-]	9.5%	–	–
N#Cc1c(NC(=O)c2ccc([N+](=O)[O-])o2)[n+]([O-])c2cc(Cl)c(Cl)cc2[n+]1[O-]	–	13.6 µg/mL (≈ 33.1 µM)	–
N#Cc1c(NC(=O)c2ccco2)[n+]([O-])c2cc(F)c(F)cc2[n+]1[O-]	53%	4.7 µg/mL (≈ 14.1 µM)	–
N#Cc1c(NC(=O)c2ccc([N+](=O)[O-])s2)[n+]([O-])c2cc(C(F)(F)F)ccc2[n+]1[O-]	–	1.7 µg/mL (≈ 4 µM)	–
Cc1cc2c(cc1C)[n+]([O-])c(NC(=O)c1ccc([N+](=O)[O-])o1)c(C#N)[n+]2[O-]	0%	–	–
N#Cc1c(NC(=O)c2ccc([N+](=O)[O-])o2)[n+]([O-])c2cc(C(F)(F)F)ccc2[n+]1[O-]	–	12.8 µg/mL (≈ 31.3 µM)	–
N#Cc1c(NC(=O)c2cccs2)[n+]([O-])c2ccc(Cl)cc2[n+]1[O-]	–	2.47 µg/mL (≈ 7.12 µM)	–
N#Cc1c(NC(=O)c2ccc([N+](=O)[O-])o2)[n+]([O-])c2ccc(Cl)cc2[n+]1[O-]	–	5.81 µg/mL (≈ 15.5 µM)	–
COc1ccc2c(c1)[n+]([O-])c(C#N)c(NC(=O)c1ccc([N+](=O)[O-])s1)[n+]2[O-]	–	9.54 µg/mL (≈ 24.6 µM)	–
N#Cc1c(NC(=O)c2ccc([N+](=O)[O-])s2)[n+]([O-])c2ccc(F)cc2[n+]1[O-]	2.5%	–	–
N#Cc1c(NC(=O)c2cccs2)[n+]([O-])c2ccccc2[n+]1[O-]	19%	5.38 µg/mL (≈ 17.2 µM)	–
Cc1ccc2c(c1)[n+]([O-])c(C#N)c(NC(=O)c1ccco1)[n+]2[O-]	11.6%	8.84 µg/mL (≈ 28.5 µM)	–
N#Cc1c(NC(=O)c2ccco2)[n+]([O-])c2ccc(F)cc2[n+]1[O-]	19.8%	–	–
COc1ccc2c(c1)[n+]([O-])c(C#N)c(NC(=O)c1ccc([N+](=O)[O-])o1)[n+]2[O-]	–	14.5 µg/mL (≈ 39 µM)	–
